From US9938259B2, “Therapeutic compositions and related methods of use” (Agios Pharmaceuticals, Inc., priority 2009, dated 2018)

Biological target: PKM2 (Homo sapiens, UniProt P14618)
Assay: PKM2 Assay
Format: biochemical
Settings: activation of PKM2 enzyme, LDH-coupled, absorbance at 340 nm; read-out: PKM2_AC50
Protocol: • PKM2 stock enzyme solution was diluted in Reaction Buffer • 2 μL of compound was added into each well first, and then 180 μL of the Reaction Mix was added. • Reaction mixture with compound (without ADP) were incubated for 30 minutes at 4° C. • Plates were re-equilibrated to room temperature prior to adding 20 μL ADP to initiate the reaction. • Reaction progress was measured as changes in absorbance at 340 nm wavelength at room temperature (25° C.) • Reaction Mix: PKM2 (50 ng/well), ADP (0.7 mM), PEP (0.15 mM), NADH (180 μM), LDH (2 units) in Reaction Buffer • Reaction Buffer: 100 mM KCl, 50 mM Tris pH 7.5, 5 mM MgCl2, 1 mM DTT, 0.03% BSA.

PKM2, sequence (P14618 whole entry): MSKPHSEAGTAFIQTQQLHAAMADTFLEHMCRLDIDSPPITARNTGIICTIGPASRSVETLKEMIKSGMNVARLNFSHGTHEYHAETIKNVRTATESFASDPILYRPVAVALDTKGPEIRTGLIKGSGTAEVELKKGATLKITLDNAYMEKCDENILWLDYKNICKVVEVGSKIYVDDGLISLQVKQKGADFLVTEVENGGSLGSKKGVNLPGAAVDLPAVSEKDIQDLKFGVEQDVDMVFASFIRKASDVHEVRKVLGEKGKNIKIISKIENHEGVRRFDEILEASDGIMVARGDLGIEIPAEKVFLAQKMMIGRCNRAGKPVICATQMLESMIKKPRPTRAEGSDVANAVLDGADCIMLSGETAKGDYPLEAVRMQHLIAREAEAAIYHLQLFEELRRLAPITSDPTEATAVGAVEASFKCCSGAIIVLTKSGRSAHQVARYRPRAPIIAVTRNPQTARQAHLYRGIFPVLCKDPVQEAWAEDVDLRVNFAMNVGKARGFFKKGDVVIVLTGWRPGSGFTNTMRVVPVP

## O=S(=O)(Nc1cc(F)cc(F)c1)c1cccn1-c1ccnc(Cl)n1
  AC50: 500 to 1000 nM

## O=S(=O)(Nc1ccc(Cl)cc1)c1cncn1-c1ncccn1
  AC50: 1000 to 10000 nM

## CN(C)S(=O)(=O)c1cccn1-c1ncc(C(F)(F)F)cc1Cl
  AC50: > 10000 nM

## COc1cc(NS(=O)(=O)c2cncn2-c2ncc(C(F)(F)F)cc2Cl)cc(OC)c1
  AC50: 500 to 1000 nM

## O=S(=O)(Nc1cc(F)c(F)c(F)c1)c1cccn1-c1ccnc(Cl)n1
  AC50: 1000 to 10000 nM

## O=S(=O)(Nc1cccc(Cl)c1)c1cncn1-c1nccs1
  AC50: 500 to 1000 nM

## O=S(=O)(Nc1cc(F)cc(F)c1)c1cncn1-c1ncccn1
  AC50: 1000 to 10000 nM

## O=S(=O)(Nc1cc(C(F)(F)F)cc(C(F)(F)F)c1)c1cncn1-c1ncc(C(F)(F)F)cc1Cl
  AC50: > 10000 nM

## O=S(=O)(Nc1cc(F)cc(F)c1)c1cncn1-c1ncc(C(F)(F)F)cc1Cl
  AC50: 500 to 1000 nM

## O=S(=O)(Nc1ccc(Cl)cc1)c1cncn1-c1ccnc(Cl)n1
  AC50: 1000 to 10000 nM

## O=S(=O)(Nc1cc(F)cc(F)c1)c1cccn1-c1ncccc1Cl [drawing 63]
  AC50: 500 to 1000 nM

## O=S(=O)(Nc1ccc(Oc2ccc(C(F)(F)F)cn2)c(Cl)c1)c1cccn1-c1ncc(C(F)(F)F)cc1Cl
  AC50: 1000 to 10000 nM

## O=S(=O)(Nc1ccccc1C(F)(F)F)c1cccn1-c1ncc(C(F)(F)F)cc1Cl
  AC50: 1000 to 10000 nM

## O=S(=O)(Nc1ccc(F)c(Cl)c1)c1ccnn1-c1nccs1
  AC50: 1000 to 10000 nM

## O=S(=O)(Nc1ccc2ncccc2c1)c1cncn1-c1ncc(C(F)(F)F)cc1Cl
  AC50: 1000 to 10000 nM

## Cc1cc(NS(=O)(=O)c2ccnn2-c2cccs2)ccc1F
  AC50: 1000 to 10000 nM

## COC(=O)c1cccc(NS(=O)(=O)c2cccn2-c2ncc(C(F)(F)F)cc2Cl)c1
  AC50: 1000 to 10000 nM

## O=S(=O)(Nc1ccc(Cl)cc1)c1cnn(-c2ccc(C(F)(F)F)cn2)c1
  AC50: 1000 to 10000 nM

## O=S(=O)(Nc1ccc(F)cc1)c1cncn1-c1ncc(C(F)(F)F)cc1Cl
  AC50: 1000 to 10000 nM

## O=S(=O)(Nc1ccc2c(c1)OCO2)c1cccn1-c1ccnc(Cl)n1
  AC50: < 100 nM

## O=S(=O)(Nc1ccc2c(c1)OCO2)c1cncn1-c1ccnc(Cl)n1
  AC50: 500 to 1000 nM

## O=S(=O)(Nc1cc(F)cc(F)c1)c1cncn1-c1ccnc(Cl)n1
  AC50: > 10000 nM

## Cc1cc(NS(=O)(=O)c2cncn2-c2cccs2)ccc1F
  AC50: 1000 to 10000 nM

## N#Cc1cccc(NS(=O)(=O)c2cccn2-c2ncc(C(F)(F)F)cc2Cl)c1
  AC50: 100 to 500 nM

## O=S(=O)(Nc1cccc(Cl)c1)c1ccnn1-c1cccs1
  AC50: > 10000 nM

## Cc1cc(NS(=O)(=O)c2ccnn2-c2nccs2)ccc1F
  AC50: 1000 to 10000 nM

## O=S(=O)(Nc1ccc(Cl)cc1)c1cccn1-c1ncccc1Cl [drawing 154]
  AC50: 100 to 500 nM

## COc1ccc(NS(=O)(=O)c2cncn2-c2ccc(C(F)(F)F)cn2)cc1
  AC50: 1000 to 10000 nM

## Cc1cccc(NS(=O)(=O)c2cncn2-c2cnccn2)c1
  AC50: 100 to 500 nM

## COCCNS(=O)(=O)c1cccn1-c1ncc(C(F)(F)F)cc1Cl
  AC50: > 10000 nM

## O=S(=O)(Nc1ccc(F)c(Cl)c1)c1cncn1-c1ccnc(Cl)n1
  AC50: 100 to 500 nM

## O=S(=O)(Nc1cccc(Cl)c1)c1ccnn1-c1ncc(C(F)(F)F)cc1Cl
  AC50: 100 to 500 nM

## O=S(=O)(Nc1ccc(F)c(Cl)c1)c1cncn1-c1ncccn1 [drawing 117]
  AC50: 100 to 500 nM

## Cc1cc(NS(=O)(=O)c2cccn2-c2ncccc2Cl)ccc1F [drawing 101]
  AC50: < 100 nM

## CCc1cccc(NS(=O)(=O)c2cccn2-c2ncc(C(F)(F)F)cc2Cl)c1
  AC50: 500 to 1000 nM

## O=S(=O)(Nc1ccc(F)cc1)c1cncn1-c1ccc(C(F)(F)F)cn1
  AC50: 1000 to 10000 nM

## Cc1cc(NS(=O)(=O)c2ccnn2-c2cnccn2)ccc1F
  AC50: 100 to 500 nM

## Cc1cc(NS(=O)(=O)c2cncn2-c2nccs2)ccc1F
  AC50: 100 to 500 nM

## O=S(=O)(Nc1cc(F)cc(F)c1)c1cccn1-c1ncccc1Cl [drawing 162]
  AC50: < 100 nM

## O=S(=O)(Nc1ccc(F)c(Cl)c1)c1ccnn1-c1cccs1
  AC50: > 10000 nM

## Cc1cc(NS(=O)(=O)c2cncn2-c2cnccn2)ccc1F
  AC50: 100 to 500 nM

## O=S(=O)(Nc1ccc(Cl)cc1)c1cccn1-c1nccc(Cl)n1
  AC50: 500 to 1000 nM

## O=S(=O)(Nc1cccc(C(F)(F)F)c1)c1cncn1-c1ncc(C(F)(F)F)cc1Cl
  AC50: 1000 to 10000 nM

## O=S(=O)(Nc1ccc(F)cc1)c1cccn1-c1ccc(C(F)(F)F)cn1
  AC50: 1000 to 10000 nM

## COc1cc(NS(=O)(=O)c2cccn2-c2ncc(C(F)(F)F)cc2Cl)cc(C(F)(F)F)c1
  AC50: 500 to 1000 nM

## O=S(=O)(Nc1cccc(Cl)c1)c1ccnn1-c1nccs1
  AC50: 1000 to 10000 nM

## O=S(=O)(NCc1cccnc1)c1cccn1-c1ncc(C(F)(F)F)cc1Cl
  AC50: 1000 to 10000 nM

## COc1ccc(NS(=O)(=O)c2cncn2-c2ncc(C(F)(F)F)cc2Cl)cc1
  AC50: 1000 to 10000 nM

## O=S(=O)(Nc1cccc2ccccc12)c1cncn1-c1ncc(C(F)(F)F)cc1Cl
  AC50: 100 to 500 nM

## O=S(=O)(NCc1ccc(Cl)cc1)c1cccn1-c1ncc(C(F)(F)F)cc1Cl
  AC50: > 10000 nM

## O=S(=O)(Nc1ccc(F)c(Cl)c1)c1cccn1-c1nccc(Cl)n1
  AC50: 100 to 500 nM

## O=S(=O)(Nc1ccc(F)c(Cl)c1)c1cncn1-c1nccs1
  AC50: 500 to 1000 nM

## COc1cc(NS(=O)(=O)c2cncn2-c2ncc(C(F)(F)F)cc2Cl)cc(C(F)(F)F)c1 [drawing 149]
  AC50: 1000 to 10000 nM

## O=S(=O)(Nc1ccc(F)cc1)c1cncn1-c1nccc(Cl)n1
  AC50: 1000 to 10000 nM

## COc1cc(NS(=O)(=O)c2cncn2-c2ncc(C(F)(F)F)cc2Cl)cc(C(F)(F)F)c1 [drawing 122]
  AC50: 1000 to 10000 nM

## O=S(=O)(Nc1ccc(Cl)cc1)c1cccn1-c1ccnc(Cl)n1
  AC50: 500 to 1000 nM

## O=S(=O)(Nc1cccc(C(F)(F)F)c1)c1cccn1-c1ncc(C(F)(F)F)cc1Cl
  AC50: 100 to 500 nM

## COc1ccc(NS(=O)(=O)c2cnn(-c3ncc(C(F)(F)F)cc3Cl)c2)cc1
  AC50: 1000 to 10000 nM

## O=S(=O)(Nc1ccc(F)c(Cl)c1)c1cccn1-c1ncccc1Cl
  AC50: 100 to 500 nM

## O=S(=O)(Nc1ccc2c(c1)OCCO2)c1cncn1-c1ccc(C(F)(F)F)cn1
  AC50: > 10000 nM

## O=S(=O)(Nc1ccc(F)cc1)c1cncn1-c1ncccn1
  AC50: 1000 to 10000 nM

## O=S(=O)(Nc1cc(F)c(F)c(F)c1)c1cncn1-c1ncc(C(F)(F)F)cc1Cl
  AC50: 1000 to 10000 nM

## N#Cc1cccc(NS(=O)(=O)c2cncn2-c2ncc(C(F)(F)F)cc2Cl)c1
  AC50: 1000 to 10000 nM

## O=S(=O)(Nc1ccc(Cl)cc1)c1cnn(-c2ncc(C(F)(F)F)cc2Cl)c1
  AC50: 100 to 500 nM

## COc1cc(NS(=O)(=O)c2cccn2-c2ncc(C(F)(F)F)cc2Cl)cc(OC)c1
  AC50: 100 to 500 nM

## O=S(=O)(Nc1ccc(F)cc1)c1cncn1-c1ccnc(Cl)n1
  AC50: 1000 to 10000 nM

## O=S(=O)(Nc1cc(Cl)cc(Cl)c1)c1cccn1-c1ncc(C(F)(F)F)cc1Cl
  AC50: 1000 to 10000 nM

## O=S(=O)(Nc1ccc2c(c1)OCO2)c1cncn1-c1ncccn1
  AC50: 500 to 1000 nM

## Cc1cc(C)cc(NS(=O)(=O)c2cncn2-c2cnccn2)c1
  AC50: < 100 nM

## O=S(=O)(Nc1ccc(F)c(Cl)c1)c1cncn1-c1cccs1
  AC50: 1000 to 10000 nM

## O=S(=O)(Nc1ccc(F)cc1)c1cccn1-c1ncccc1Cl
  AC50: 1000 to 10000 nM

## O=S(=O)(Nc1cccc2ncccc12)c1cncn1-c1ncc(C(F)(F)F)cc1Cl
  AC50: 1000 to 10000 nM

## CCCNS(=O)(=O)c1cccn1-c1ncc(C(F)(F)F)cc1Cl
  AC50: 1000 to 10000 nM

## O=S(=O)(Nc1cccc(C(F)(F)F)c1)c1cccn1-c1ccnc(Cl)n1
  AC50: 500 to 1000 nM

## Cc1cc(NS(=O)(=O)c2cccn2-c2ccnc(Cl)n2)ccc1F
  AC50: < 100 nM

## Cc1cc(NS(=O)(=O)c2cncn2-c2ncccn2)ccc1F [drawing 132]
  AC50: < 100 nM

## COc1ccc(NS(=O)(=O)c2cccn2-c2ncc(C(F)(F)F)cc2Cl)cc1
  AC50: 100 to 500 nM
